US10173991B2, “Sulfone amide linked benzothiazole inhibitors of endothelial lipase” (BRISTOL-MYERS SQUIBB COMPANY, priority 2014, dated 2019)

biological target: Endothelial lipase (EL) (Homo sapiens (Human), UniProt Q9Y5X9); experiment: Endothelial lipase (EL) enzymatic assay with fluorescent substrate A10070 in DMPG vesicles; format: biochemical
Outline: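 EL from conditioned medium of HT-1080 cells engineered to overexpress endogenous EL; HL partially purified from conditioned medium of HL-overexpressing COS cells. Enzyme preincubated with compound 30 min at 37° C in 50 mM HEPES pH 8.0, 50 mM NaCl, 1 mM CaCl2; DMPG vesicles carrying FRET substrate (0.11 mole fraction) then added.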

Chain of Endothelial lipase (EL) (Q9Y5X9 21-500): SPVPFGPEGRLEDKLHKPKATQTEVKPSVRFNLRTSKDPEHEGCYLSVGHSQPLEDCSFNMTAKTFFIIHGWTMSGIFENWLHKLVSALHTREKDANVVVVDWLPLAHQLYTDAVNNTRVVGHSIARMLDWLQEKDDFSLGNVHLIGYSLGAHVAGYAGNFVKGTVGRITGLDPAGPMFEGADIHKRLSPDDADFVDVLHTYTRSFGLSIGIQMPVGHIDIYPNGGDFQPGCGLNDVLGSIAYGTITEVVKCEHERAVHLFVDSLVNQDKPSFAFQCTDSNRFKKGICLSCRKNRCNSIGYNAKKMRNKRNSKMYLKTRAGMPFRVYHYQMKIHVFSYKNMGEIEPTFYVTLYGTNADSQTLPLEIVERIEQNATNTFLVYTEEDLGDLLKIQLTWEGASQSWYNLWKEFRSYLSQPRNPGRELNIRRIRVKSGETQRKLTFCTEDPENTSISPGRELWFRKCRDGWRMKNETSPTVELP

Question: Which IC50 does the source give for CC(C)S(=O)(=O)C(C(=O)NCC(=O)NC1CC1)c1nc2cc(F)c(-c3cnc(=O)[nH]c3)cc2s1 (stereo not shown) [Example 232, N-[(cyclopropyl-carbamoyl)methyl]-2-[5-fluoro-6-(2-oxo-1,2-dihydropyrimidin-5-yl)-1,3-benzothiazol-2-yl]-2-(propane-2-sulfonyl) acetamide] here?
Answer: 122 nM

Question: For CC(C)S(=O)(=O)C(C(=O)NCC(=O)NC1CC1)c1nc2cc(F)c(-c3cn(C)c(=O)c4ccccc34)cc2s1 (stereo not shown) [Example 233, N-[(cyclopropyl-carbamoyl)methyl]-2-[5-fluoro-6-(2-methyl-1-oxo-1,2-dihydro-isoquinolin-4-yl)-1,3-benzothiazol-2-yl]-2-(propane-2-sulfonyl) acetamide], which IC50 is on record?
Answer: 26 nM

Question: With CC(C)S(=O)(=O)C(C(=O)NCC(=O)NC1CC1)c1nc2cc(F)c(-c3ccc4[nH]c(=O)ccc4c3)cc2s1 (stereo not shown) [Example 234, N-[(cyclopropyl-carbamoyl)methyl]-2-[5-fluoro-6-(2-oxo-1,2-dihydroquinolin-6-yl)-1,3-benzothiazol-2-yl]-2-(propane-2-sulfonyl) acetamide] as the compound, how does the IC50 read?
Answer: 6 nM

Question: For CC(C)Oc1ccc(-c2cc3sc(C(C(=O)NCC(=O)NC4CC4)S(=O)(=O)C(C)C)nc3cc2F)cn1 (stereo not shown) [Example 235, N-[(cyclopropyl-carbamoyl)methyl]-2-{5-fluoro-6-[6-(propan-2-yloxy)pyridin-3-yl]-1,3-benzothiazol-2-yl}-2-(propane-2-sulfonyl) acetamide], which IC50 is on record?
Answer: 6 nM

Question: Which IC50 does the source give for CC(C)S(=O)(=O)C(C(=O)NCC(=O)NC1CC1)c1nc2cc(F)c(-c3ccc4c(c3)CNC4=O)cc2s1 (stereo not shown) [Example 236, N-[(cyclopropyl-carbamoyl)methyl]-2-[5-fluoro-6-(1-oxo-2,3-dihydro-1H-isoindol-5-yl)-1,3-benzothiazol-2-yl]-2-(propane-2-sulfonyl) acetamide] here?
Answer: 16 nM

Question: Which IC50 does the source give for CC(C)S(=O)(=O)C(C(=O)NCC(=O)NC1CC1)c1nc2cc(F)c(-c3ccc4cnn(C)c4c3)cc2s1 (stereo not shown) [Example 237, N-[(cyclopropyl-carbamoyl)methyl]-2-[5-fluoro-6-(1-methyl-1H-indazol-6-yl)-1,3-benzothiazol-2-yl]-2-(propane-2-sulfonyl) acetamide] here?
Answer: 5 nM

Question: For Cc1nc2cc(-c3cc4sc(C(C(=O)NCC(=O)NC5CC5)S(=O)(=O)C(C)C)nc4cc3F)ccc2s1 (stereo not shown) [Example 238, N-[(cyclopropyl-carbamoyl)methyl]-2-[5-fluoro-6-(2-methyl-1,3-benzothiazol-5-yl)-1,3-benzothiazol-2-yl]-2-(propane-2-sulfonyl)acetamide], which IC50 is on record?
Answer: 5 nM

Question: With CC(C)S(=O)(=O)C(C(=O)NCC(=O)NC1CC1)c1nc2cc(F)c(-c3ccc4c(c3)C(=O)NC4)cc2s1 (stereo not shown) [Example 239, N-[(cyclopropyl-carbamoyl)methyl]-2-[5-fluoro-6-(3-oxo-2,3-dihydro-1H-isoindol-5-yl)-1,3-benzothiazol-2-yl]-2-(propane-2-sulfonyl)acetamide] as the compound, how does the IC50 read?
Answer: 16 nM

Question: How did the IC50 turn out when Cc1cc(-c2cc3sc(C(C(=O)NCC(=O)NC4CC4)S(=O)(=O)C(C)C)nc3cc2F)cnn1 (stereo not shown) [Example 240, N-[(cyclopropylcarbamoyl)methyl]-2-[5-fluoro-6-(6-methylpyridazin-4-yl)-1,3-benzothiazol-2-yl]-2-(propane-2-sulfonyl) acetamide] was run?
Answer: 192 nM

Question: CC(C)S(=O)(=O)C(C(=O)NCC(=O)NC1CC1)c1nc2cc(F)c(-c3ccc(C4CC4)nc3)cc2s1 (stereo not shown) [Example 241, N-[(cyclopropyl-carbamoyl)methyl]-2-[6-(6-cyclopropyl-pyridin-3-yl)-5-fluoro-1,3-benzothiazol-2-yl]-2-(propane-2-sulfonyl) acetamide] was tested. Which IC50 did it give?
Answer: 17 nM

Question: CC(C)S(=O)(=O)C(C(=O)NCC(=O)NC1CC1)c1nc2cc(F)c(-c3ccc4c(=O)n(C)ccc4c3)cc2s1 (stereo not shown) [Example 242, N-[(cyclopropyl-carbamoyl)methyl]-2-[5-fluoro-6-(2-methyl-1-oxo-1,2-dihydro-isoquinolin-6-yl)-1,3-benzothiazol-2-yl]-2-(propane-2-sulfonyl) acetamide] was tested. Which IC50 did it give?
Answer: 4 nM

Question: CC(C)S(=O)(=O)C(C(=O)NCC(=O)NC1CC1)c1nc2cc(F)c(-c3cnc(C4CC4)nc3)cc2s1 (stereo not shown) [Example 243, N-[(cyclopropyl-carbamoyl)methyl]-2-[6-(2-cyclopropyl-pyrimidin-5-yl)-5-fluoro-1,3-benzothiazol-2-yl]-2-(propane-2-sulfonyl) acetamide] was tested. Which IC50 did it give?
Answer: 33 nM

Question: How did the IC50 turn out when CC(C)S(=O)(=O)C(C(=O)NCC(=O)NC1CC1)c1nc2cc(F)c(-c3ccc(C(=O)N4CCC4)cc3)cc2s1 (stereo not shown) [Example 244, 2-{6-[4-(azetidine-1-carbonyl)phenyl]-5-fluoro-1,3-benzothiazol-2-yl}-N-[(cyclopropyl-carbamoyl)methyl]-2-(propane-2-sulfonyl)acetamide] was run?
Answer: 7 nM

Question: Which IC50 does the source give for Cc1cc(-c2cc3sc(C(C(=O)NCC(=O)NC4CC4)S(=O)(=O)C(C)C)nc3cc2F)ccn1 (stereo not shown) [Example 245, N-[(cyclopropyl-carbamoyl)methyl]-2-[5-fluoro-6-(2-methylpyridin-4-yl)-1,3-benzothiazol-2-yl]-2-(propane-2-sulfonyl)acetamide] here?
Answer: 12 nM

Question: Which IC50 does the source give for Cc1ccc(-c2cc3sc(C(C(=O)NCC(=O)NC4CC4)S(=O)(=O)C(C)C)nc3cc2F)cn1 (stereo not shown) [Example 246, N-[(cyclopropyl-carbamoyl)methyl]-2-[5-fluoro-6-(6-methylpyridin-3-yl)-1,3-benzothiazol-2-yl]-2-(propane-2-sulfonyl)acetamide] here?
Answer: 12 nM

Question: CC(C)S(=O)(=O)C(C(=O)NCC(=O)NC1CC1)c1nc2cc(F)c(-c3ccc(C(=O)Nc4nccs4)cc3)cc2s1 (stereo not shown) [Example 247, 4-[2-({[(cyclopropyl-carbamoyl)methyl]carbamoyl} (propane-2-sulfonyl)methyl)-5-fluoro-1,3-benzothiazol-6-yl]-N-(1,3-thiazol-2-yl) benzamide] was tested. Which IC50 did it give?
Answer: 11 nM

Question: For Cc1nc2cc(-c3cc4sc(C(C(=O)NCC(=O)NC5CC5)S(C)(=O)=O)nc4cc3F)ccc2s1 (stereo not shown) [Example 248, N-[(cyclopropyl-carbamoyl)methyl]-2-[5-fluoro-6-(2-methyl-1,3-benzothiazol-5-yl)-1,3-benzothiazol-2-yl]-2-methanesulfonyl-acetamide], which IC50 is on record?
Answer: 1 nM

Question: CC(C)S(=O)(=O)C(C(=O)NCC(=O)NC1CC1)c1nc2cc(F)c(-c3ccc(C#N)nc3)cc2s1 (stereo not shown) [Example 249, 2-[6-(6-cyanopyridin-3-yl)-5-fluoro-1,3-benzothiazol-2-yl]-N-[(cyclopropyl-carbamoyl)methyl]-2-(propane-2-sulfonyl)acetamide] was tested. Which IC50 did it give?
Answer: 29 nM

Question: Cc1cc(-c2cc3sc(C(C(=O)NCC(=O)NC4CC4)S(C)(=O)=O)nc3cc2F)ccn1 (stereo not shown) [Example 250, N-[(cyclopropyl-carbamoyl)methyl]-2-[5-fluoro-6-(2-methylpyridin-4-yl)-1,3-benzothiazol-2-yl]-2-methanesulfonyl-acetamide] was tested. Which IC50 did it give?
Answer: 11 nM

Question: How did the IC50 turn out when CC(C)c1ccc(-c2cc3sc(C(C(=O)NCC(=O)NC4CC4)S(=O)(=O)C(C)C)nc3cc2F)cn1 (stereo not shown) [Example 251, N-[(cyclopropyl-carbamoyl)methyl]-2-{5-fluoro-6-[6-(propan-2-yl)pyridin-3-yl]-1,3-benzothiazol-2-yl}-2-(propane-2-sulfonyl) acetamide] was run?
Answer: 8 nM

Question: Cc1ccc(-c2cc3sc(C(C(=O)NCC(=O)NC4CC4)S(=O)(=O)C(C)C)nc3cc2C)cn1 (stereo not shown) [Example 252, N-[(cyclopropyl-carbamoyl)methyl]-2-[5-methyl-6-(6-methylpyridin-3-yl)-1,3-benzothiazol-2-yl]-2-(propane-2-sulfonyl)acetamide] was tested. Which IC50 did it give?
Answer: 15 nM

Question: Cc1cc2nc(C(C(=O)NCC(=O)NC3CC3)S(=O)(=O)C(C)C)sc2cc1-c1ccc(C(C)C)nc1 (stereo not shown) [Example 253, N-[(cyclopropyl-carbamoyl)methyl]-2-{5-methyl-6-[6-(propan-2-yl)pyridin-3-yl]-1,3-benzothiazol-2-yl}-2-(propane-2-sulfonyl) acetamide] was tested. Which IC50 did it give?
Answer: 7 nM

Question: For Cc1cc2nc(C(C(=O)NCC(=O)NC3CC3)S(=O)(=O)C(C)C)sc2cc1-c1ccc(C#N)nc1 (stereo not shown) [Example 254, 2-[6-(6-cyanopyridin-3-yl)-5-methyl-1,3-benzothiazol-2-yl]-N-[(cyclopropyl-carbamoyl)methyl]-2-(propane-2-sulfonyl)acetamide], which IC50 is on record?
Answer: 9 nM

Question: Which IC50 does the source give for Cc1cc(-c2cc3sc(C(C(=O)NCC(=O)NC4CC4)S(=O)(=O)C(C)C)nc3cc2C)ccn1 (stereo not shown) [Example 255, N-[(cyclopropyl-carbamoyl)methyl]-2-[5-methyl-6-(2-methylpyridin-4-yl)-1,3-benzothiazol-2-yl]-2-(propane-2-sulfonyl) acetamide] here?
Answer: 5 nM

Question: Which IC50 does the source give for Cc1cc2nc(C(C(=O)NCC(=O)NC3CC3)S(=O)(=O)C(C)C)sc2cc1-c1ccc2c(=O)n(C)ccc2c1 (stereo not shown) [Example 256, N-[(cyclopropyl-carbamoyl)methyl]-2-[5-methyl-6-(2-methyl-1-oxo-1,2-dihydro-isoquinolin-6-yl)-1,3-benzothiazol-2-yl]-2-(propane-2-sulfonyl) acetamide] here?
Answer: 3 nM

Question: With Cc1cc(-c2cc3sc(C(C(=O)NCC(=O)NC4CC4)S(=O)(=O)C(C)C)nc3cc2C)cnn1 (stereo not shown) [Example 257, N-[(cyclopropyl-carbamoyl)methyl]-2-[5-methyl-6-(6-methylpyridazin-4-yl)-1,3-benzothiazol-2-yl]-2-(propane-2-sulfonyl) acetamide] as the compound, how does the IC50 read?
Answer: 11 nM

Question: Cc1cc2nc(C(C(=O)NCC(=O)NC3CC3)S(=O)(=O)C(C)C)sc2cc1-c1ccc2c(c1)C(=O)NC2 (stereo not shown) [Example 258, N-[(cyclopropyl-carbamoyl)methyl]-2-[5-methyl-6-(3-oxo-2,3-dihydro-1H-isoindol-5-yl)-1,3-benzothiazol-2-yl]-2-(propane-2-sulfonyl) acetamide] was tested. Which IC50 did it give?
Answer: 19 nM

Question: With Cc1cc2nc(C(C(=O)NCC(=O)NC3CC3)S(=O)(=O)C(C)C)sc2cc1-c1ccc(C(=O)N2CCC2)cc1 (stereo not shown) [Example 259, 2-{6-[4-(azetidine-1-carbonyl)phenyl]-5-methyl-1,3-benzothiazol-2-yl}-N-[(cyclopropyl-carbamoyl)methyl]-2-(propane-2-sulfonyl)acetamide] as the compound, how does the IC50 read?
Answer: 3 nM
